Laboratory results published in the NIST ThermoML archive (doi:10.1021/je8008073).

Assay: wn = mass fraction of the nth substance listed
Conditions: Liquid; for mass density: Vibrating tube method; for viscosity: Falling or rolling sphere viscometry

CC(C)Cc1ccccc1 [(2-methylpropyl)benzene] + CCCCCCCCCCCC
Conditions | mass density [kg/m3] | viscosity [mPa·s]
293.15 K, 100 kPa, w2 = 0.5 | 795.4 | –
293.15 K, 2000 kPa, w2 = 0.5 | 796.7 | –
293.15 K, 4000 kPa, w2 = 0.5 | 798.1 | –
293.15 K, 6000 kPa, w2 = 0.5 | 799.5 | –
293.15 K, 8000 kPa, w2 = 0.5 | 801.1 | –
293.15 K, 10000 kPa, w2 = 0.5 | 802.5 | –
293.15 K, 12000 kPa, w2 = 0.5 | 803.7 | –
293.15 K, 14000 kPa, w2 = 0.5 | 805 | –
293.15 K, 16000 kPa, w2 = 0.5 | 806.3 | –
293.15 K, 18000 kPa, w2 = 0.5 | 807.6 | –
293.15 K, 20000 kPa, w2 = 0.5 | 808.9 | –
295.65 K, 100 kPa, w2 = 0.5 | 793.6 | –
295.65 K, 2000 kPa, w2 = 0.5 | 794.9 | –
295.65 K, 4000 kPa, w2 = 0.5 | 796.3 | –
295.65 K, 6000 kPa, w2 = 0.5 | 797.7 | –
295.65 K, 8000 kPa, w2 = 0.5 | 799.1 | –
295.65 K, 10000 kPa, w2 = 0.5 | 800.5 | –
295.65 K, 12000 kPa, w2 = 0.5 | 801.8 | –
295.65 K, 14000 kPa, w2 = 0.5 | 803.1 | –
295.65 K, 16000 kPa, w2 = 0.5 | 804.3 | –
295.65 K, 18000 kPa, w2 = 0.5 | 805.6 | –
295.65 K, 20000 kPa, w2 = 0.5 | 806.8 | –
298.15 K, 100 kPa, w1 = 0.48 | 789.5 | –
298.15 K, 100 kPa, w1 = 0.49 | 790.4 | –
298.15 K, 100 kPa, w1 = 0.5 | 791.7 | –
298.15 K, 100 kPa, w1 = 0.51 | 792.7 | –
298.15 K, 100 kPa, w1 = 0.52 | 793.6 | –
298.15 K, 100 kPa, w2 = 0.5 | 791.7 | 1.09
298.15 K, 2000 kPa, w1 = 0.48 | 790.9 | –
298.15 K, 2000 kPa, w1 = 0.49 | 792 | –
298.15 K, 2000 kPa, w1 = 0.5 | 793.1 | –
298.15 K, 2000 kPa, w1 = 0.51 | 794.1 | –
298.15 K, 2000 kPa, w1 = 0.52 | 795.2 | –
298.15 K, 2000 kPa, w2 = 0.5 | 793.1 | –
298.15 K, 4000 kPa, w1 = 0.48 | 792.4 | –
298.15 K, 4000 kPa, w1 = 0.49 | 793.5 | –
298.15 K, 4000 kPa, w1 = 0.5 | 794.5 | –
298.15 K, 4000 kPa, w1 = 0.51 | 795.7 | –
298.15 K, 4000 kPa, w1 = 0.52 | 796.6 | –
298.15 K, 4000 kPa, w2 = 0.5 | 794.5 | 1.14
298.15 K, 6000 kPa, w1 = 0.48 | 793.9 | –
298.15 K, 6000 kPa, w1 = 0.49 | 794.9 | –
298.15 K, 6000 kPa, w1 = 0.5 | 795.9 | –
298.15 K, 6000 kPa, w1 = 0.51 | 797 | –
298.15 K, 6000 kPa, w1 = 0.52 | 797.9 | –
298.15 K, 6000 kPa, w2 = 0.5 | 795.9 | –
298.15 K, 8000 kPa, w1 = 0.48 | 795.3 | –
298.15 K, 8000 kPa, w1 = 0.49 | 796.3 | –
298.15 K, 8000 kPa, w1 = 0.5 | 797.3 | –
298.15 K, 8000 kPa, w1 = 0.51 | 798.4 | –
298.15 K, 8000 kPa, w1 = 0.52 | 799.3 | –
298.15 K, 8000 kPa, w2 = 0.5 | 797.3 | –
298.15 K, 10000 kPa, w1 = 0.48 | 796.6 | –
298.15 K, 10000 kPa, w1 = 0.49 | 797.4 | –
298.15 K, 10000 kPa, w1 = 0.5 | 798.6 | –
298.15 K, 10000 kPa, w1 = 0.51 | 799.7 | –
298.15 K, 10000 kPa, w1 = 0.52 | 800.6 | –
298.15 K, 10000 kPa, w2 = 0.5 | 798.6 | 1.22
298.15 K, 12000 kPa, w1 = 0.48 | 797.9 | –
298.15 K, 12000 kPa, w1 = 0.49 | 798.7 | –
298.15 K, 12000 kPa, w1 = 0.5 | 799.9 | –
298.15 K, 12000 kPa, w1 = 0.51 | 801 | –
298.15 K, 12000 kPa, w1 = 0.52 | 801.9 | –
298.15 K, 12000 kPa, w2 = 0.5 | 799.9 | –
298.15 K, 14000 kPa, w1 = 0.48 | 799.2 | –
298.15 K, 14000 kPa, w1 = 0.49 | 800.1 | –
298.15 K, 14000 kPa, w1 = 0.5 | 801.3 | –
298.15 K, 14000 kPa, w1 = 0.51 | 802.3 | –
298.15 K, 14000 kPa, w1 = 0.52 | 803.2 | –
298.15 K, 14000 kPa, w2 = 0.5 | 801.3 | –
298.15 K, 16000 kPa, w1 = 0.48 | 800.5 | –
298.15 K, 16000 kPa, w1 = 0.49 | 801.3 | –
298.15 K, 16000 kPa, w1 = 0.5 | 802.6 | –
298.15 K, 16000 kPa, w1 = 0.51 | 803.5 | –
298.15 K, 16000 kPa, w1 = 0.52 | 804.5 | –
298.15 K, 16000 kPa, w2 = 0.5 | 802.6 | –
298.15 K, 18000 kPa, w1 = 0.48 | 801.7 | –
298.15 K, 18000 kPa, w1 = 0.49 | 802.6 | –
298.15 K, 18000 kPa, w1 = 0.5 | 803.8 | –
298.15 K, 18000 kPa, w1 = 0.51 | 804.7 | –
298.15 K, 18000 kPa, w1 = 0.52 | 805.7 | –
298.15 K, 18000 kPa, w2 = 0.5 | 803.8 | –
298.15 K, 20000 kPa, w1 = 0.48 | 803.1 | –
298.15 K, 20000 kPa, w1 = 0.49 | 803.9 | –
298.15 K, 20000 kPa, w1 = 0.5 | 805.1 | –
298.15 K, 20000 kPa, w1 = 0.51 | 806 | –
298.15 K, 20000 kPa, w1 = 0.52 | 807 | –
298.15 K, 20000 kPa, w2 = 0.5 | 805.1 | –
300.65 K, 100 kPa, w2 = 0.5 | 789.9 | –
300.65 K, 2000 kPa, w2 = 0.5 | 791.2 | –
300.65 K, 4000 kPa, w2 = 0.5 | 792.6 | –
300.65 K, 6000 kPa, w2 = 0.5 | 794 | –
300.65 K, 8000 kPa, w2 = 0.5 | 795.4 | –
300.65 K, 10000 kPa, w2 = 0.5 | 796.8 | –
300.65 K, 12000 kPa, w2 = 0.5 | 798.1 | –
300.65 K, 14000 kPa, w2 = 0.5 | 799.4 | –
300.65 K, 16000 kPa, w2 = 0.5 | 800.7 | –
300.65 K, 18000 kPa, w2 = 0.5 | 802 | –
300.65 K, 20000 kPa, w2 = 0.5 | 803.3 | –
303.15 K, 100 kPa, w2 = 0.5 | 788.1 | –
303.15 K, 2000 kPa, w2 = 0.5 | 789.6 | –
303.15 K, 4000 kPa, w2 = 0.5 | 791.1 | –
303.15 K, 6000 kPa, w2 = 0.5 | 792.5 | –
303.15 K, 8000 kPa, w2 = 0.5 | 794 | –
303.15 K, 10000 kPa, w2 = 0.5 | 795.4 | –
303.15 K, 12000 kPa, w2 = 0.5 | 796.7 | –
303.15 K, 14000 kPa, w2 = 0.5 | 798.1 | –
303.15 K, 16000 kPa, w2 = 0.5 | 799.4 | –
303.15 K, 18000 kPa, w2 = 0.5 | 800.8 | –
303.15 K, 20000 kPa, w2 = 0.5 | 802 | –
